Reference: ChEMBL document CHEMBL1201862, “PubChem BioAssay data set” (2004)
Activity calls are given as the source filed them.

Columns and labels:
Prothrombin = Prothrombin (Homo sapiens, UniProt P00734); test: Thrombin 1536 HTS Dose Response Confirmation. [Related pubchem assays: 1046 (Thrombin 1536 HTS; hits were confirmed in this assay)]; assay type: functional
[1] = Luminescence-based cell-based high throughput dose response assay to identify activators of the DAF-12 from the parasite S. stercoralis (ssDAF-12).; assay type: functional
[2] = biological target: T1, Oxysterols receptor LXR-beta (Homo sapiens, UniProt P55055); test: LXR agonists, Gal4 luciferase reporter, dose response, counter-screen for ssDAF-12 agonist project, cell-based, luminescence, HEK293, S. stercoralis campaign (AID 720737); assay type: functional; details: read-out: IC50 (the source's name)
T1 sequence (P55055 whole entry): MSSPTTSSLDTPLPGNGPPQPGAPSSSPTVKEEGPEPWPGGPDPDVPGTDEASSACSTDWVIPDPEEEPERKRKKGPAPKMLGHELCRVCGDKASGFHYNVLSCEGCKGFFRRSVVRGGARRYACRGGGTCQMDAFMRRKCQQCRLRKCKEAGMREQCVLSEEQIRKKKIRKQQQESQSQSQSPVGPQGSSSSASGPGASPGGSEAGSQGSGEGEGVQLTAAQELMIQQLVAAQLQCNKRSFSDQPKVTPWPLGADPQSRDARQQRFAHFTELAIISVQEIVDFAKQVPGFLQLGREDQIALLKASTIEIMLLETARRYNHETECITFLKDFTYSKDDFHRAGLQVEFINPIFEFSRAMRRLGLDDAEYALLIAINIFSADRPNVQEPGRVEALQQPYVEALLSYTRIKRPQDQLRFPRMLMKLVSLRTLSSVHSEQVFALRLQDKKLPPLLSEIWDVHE

[3] = Vero cell cytotoxicity, dose response, cytotoxicity control for Vif-APOBEC3G degradation inhibitor project, Vero cells (AID 1117358); assay type: functional; details: Human immunodeficiency virus 1, Vero
[4] = inhibitors of intracellular T. cruzi replication, confirmation, NIH3T3 host cells, beta-gal luminescence (AID 2044); assay type: functional, cell-based;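 further: intracellular parasites grown in NIH/3T3 mouse fibroblasts as host cells; luminescent beta-galactosidase reporter signal from transgenic T. cruzi replicating inside host cells; inhibitors lower the luminescence signal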
[5] = cytotoxicity toward NIH3T3 fibroblasts, dose response, counter-screen, cell-based, ATP luminescence, mouse fibroblasts (AID 2010); assay type: functional;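 further: cells exposed to compound for about 90 hours before reading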
cells [6] = test: cells
[7] = biological target: T2, Mannose-6-phosphate isomerase (Homo sapiens, UniProt P34949); test: human PMI inhibitors, high substrate, primary screen, biochemical, fluorescence intensity, high mannose 6-phosphate (AID 1220)
T2 sequence (P34949 whole entry): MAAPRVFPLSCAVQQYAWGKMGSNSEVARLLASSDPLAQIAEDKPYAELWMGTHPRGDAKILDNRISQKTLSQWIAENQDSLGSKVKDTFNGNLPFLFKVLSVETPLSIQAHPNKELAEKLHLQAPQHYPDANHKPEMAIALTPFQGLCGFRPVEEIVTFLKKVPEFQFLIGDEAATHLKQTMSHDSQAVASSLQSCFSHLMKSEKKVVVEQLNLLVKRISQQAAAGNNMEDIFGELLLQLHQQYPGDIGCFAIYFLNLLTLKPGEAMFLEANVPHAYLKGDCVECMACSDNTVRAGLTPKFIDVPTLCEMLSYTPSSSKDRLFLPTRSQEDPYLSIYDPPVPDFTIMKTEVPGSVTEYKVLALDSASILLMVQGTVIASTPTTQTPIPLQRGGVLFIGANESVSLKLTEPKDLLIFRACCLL

cells [8] = assay type: functional, cell-based
cells [9] = assay type: functional, cell-based; remark: listed apart in the source
Cytochrome P450 2D6 = Cytochrome P450 2D6 (Homo sapiens, UniProt P10635);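 further: CYP2D6 member of a cytochrome P450 panel assay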
Cytochrome P450 2C9 = Cytochrome P450 2C9 (Homo sapiens, UniProt P11712)
Cytochrome P450 3A4 = Cytochrome P450 3A4 (Homo sapiens, UniProt P08684);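 further: CYP3A4 tested as one member of a cytochrome P450 panel screen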
BJ [10] = test: cells; assay type: functional, cell-based; details: Homo sapiens
[11] = cytotoxicity toward DRD oncogenic fibroblasts, dose response, cell-based, non-viral oncogenic, luminescence (AID 1934); assay type: functional; details: Homo sapiens
BJ [12] = test: cytotoxicity toward BJ-TERT-LT-ST fibroblasts, dose response, cell-based, RAS-independent, luminescence (AID 1935); assay type: functional; details: Homo sapiens;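 further: BJ fibroblasts immortalized with TERT plus LT and ST oncogenes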
BJ [13] = test: cytotoxicity toward BJ-TERT fibroblasts, dose response, cell-based, RAS-independent, luminescence (AID 1933); assay type: functional; details: Homo sapiens
Estrogen receptor = biological target: T3, Estrogen receptor (Homo sapiens, UniProt P03372);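 further: potency for inhibiting coactivator peptide recruitment to the receptor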
T3 sequence (P03372 whole entry): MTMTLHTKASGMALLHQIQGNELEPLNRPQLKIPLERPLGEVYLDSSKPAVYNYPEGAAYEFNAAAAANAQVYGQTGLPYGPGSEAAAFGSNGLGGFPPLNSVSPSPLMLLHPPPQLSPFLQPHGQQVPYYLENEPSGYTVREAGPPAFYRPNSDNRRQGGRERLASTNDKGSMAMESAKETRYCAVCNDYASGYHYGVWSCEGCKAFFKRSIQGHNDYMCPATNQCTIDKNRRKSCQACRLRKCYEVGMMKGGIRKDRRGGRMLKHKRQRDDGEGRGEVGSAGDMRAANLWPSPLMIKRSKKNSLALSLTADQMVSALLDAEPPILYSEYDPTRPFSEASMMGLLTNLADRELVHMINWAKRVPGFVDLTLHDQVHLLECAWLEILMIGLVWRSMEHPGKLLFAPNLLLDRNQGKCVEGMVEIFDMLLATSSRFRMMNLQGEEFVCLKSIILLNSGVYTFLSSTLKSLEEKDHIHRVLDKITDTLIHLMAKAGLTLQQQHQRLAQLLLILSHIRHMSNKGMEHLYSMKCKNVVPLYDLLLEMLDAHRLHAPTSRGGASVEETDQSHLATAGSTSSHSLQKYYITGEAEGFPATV

[14] = growth suppression of beta-catenin-knockout colon cells, dose response, cell-based, HCT116, human colon tumor (AID 1045); assay type: functional;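 further: HCT116 colon tumor cells with beta catenin knocked out; cells exposed to compound for 60 hours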
[15] = control 3'UTR Renilla luciferase suppression, dose response, counter-screen for Shn3 inhibitor project, cell-based, Clone20-Shn3RL, cherry-picked (AID 624133); assay type: functional
[16] = Luminescence Cell-Based Dose Retest to Confirm Inhibitors of Cancer Stem Cells. [Related pubchem assays (depositor defined):AID2717, AID2721]; assay type: functional; details: Homo sapiens
[17] = biological target: T4, Heat shock factor protein 1 (Mus musculus, UniProt P38532); test: HSF1 potentiators in luciferase reporter cells, confirmation, cell-based, NIH3T3, luminescence, dose retest (AID 435004); assay type: functional;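 further: stress induced by proteasome inhibitor MG132 added 30 min after compound; luciferase reporter driven by HSF1 response element in NIH3T3 cells; actives raise luminescence as potentiators of the MG132 stress response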
T4 sequence (P38532 whole entry): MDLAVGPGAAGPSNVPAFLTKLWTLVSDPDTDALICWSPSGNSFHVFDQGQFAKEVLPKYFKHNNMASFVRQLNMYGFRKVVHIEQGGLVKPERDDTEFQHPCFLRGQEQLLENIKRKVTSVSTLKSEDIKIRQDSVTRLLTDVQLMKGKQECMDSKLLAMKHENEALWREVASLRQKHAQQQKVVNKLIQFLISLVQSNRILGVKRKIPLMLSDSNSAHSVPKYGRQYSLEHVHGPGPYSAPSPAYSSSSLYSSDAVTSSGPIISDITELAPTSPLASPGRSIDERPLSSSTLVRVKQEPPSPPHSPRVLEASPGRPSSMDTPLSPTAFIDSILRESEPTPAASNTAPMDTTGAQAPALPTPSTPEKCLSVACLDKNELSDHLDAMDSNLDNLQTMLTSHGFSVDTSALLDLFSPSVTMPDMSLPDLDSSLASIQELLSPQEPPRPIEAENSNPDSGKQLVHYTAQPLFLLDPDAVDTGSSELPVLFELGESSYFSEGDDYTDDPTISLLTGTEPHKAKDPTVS

Fatty acid synthase [18] = biological target: T5, Fatty acid synthase (Homo sapiens, UniProt P49327); test: FAS thioesterase domain inhibitors, dose response, biochemical, endpoint fluorescence intensity, uHTS hits (AID 624327); assay type: functional;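 further: fluorescence from hydrolysis of an O-methyl fluorescein acyl ester substrate by the enzyme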
[19] = Shn3 3'UTR reporter inhibitors, dose response, cell-based, Clone20 osteoblasts, firefly luciferase, cherry-picked (AID 624132); assay type: functional;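 further: firefly luciferase luminescence from reporter carrying the Shn3 3'UTR in osteoblasts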
[20] = HepG2 cell cytotoxicity, dose response, cytotoxicity control for Shn3 inhibitor project, CellTiter-Glo, cherry-picked (AID 624134); assay type: functional, cell-based
[21] = growth suppression of PTEN-null colon cells, dose response, cell-based, HCT116 PTEN knockout (AID 1047); assay type: functional;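 further: HCT116 colon tumor cells with PTEN knocked out; cells exposed to compound for 60 hours before readout; potency for loss of cell viability measured by luminescence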
Fatty acid synthase [22] = biological target: T5, Fatty acid synthase; test: FAS thioesterase domain inhibitors, dose response, biochemical, kinetic fluorescence intensity (AID 624326); assay type: functional;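 further: rate of fluorescence rise from hydrolysis of a fluorogenic O-methyl fluorescein ester substrate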
[23] = cytotoxicity in HPDE-C7 cells, cell-based, fluorescence, HTS (AID 430); assay type: functional; details: Homo sapiens
[24] = cytotoxicity in KRAS-transformed pancreatic duct cells, primary screen, cell-based, fluorescence, HTS (AID 431); assay type: functional; details: Homo sapiens;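 further: cell line used: HPDE-C7K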
Nonstructural protein 1 = Nonstructural protein 1 (Influenza A virus, UniProt Q194T2); assay type: functional, Influenza A virus (A/California/07/2009(H1N1))
Protein Tat = biological target: T6, Protein Tat (Human immunodeficiency virus type 1 group M subtype B (isolate HXB2)(HIV-1), UniProt P04608); assay type: functional;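 further: tat binding to TAR RNA read out by fluorescence polarization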
T6 sequence (P04608 whole entry): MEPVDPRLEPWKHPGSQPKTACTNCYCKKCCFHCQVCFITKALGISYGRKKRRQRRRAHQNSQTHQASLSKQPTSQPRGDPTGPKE

[25] = P. falciparum 3D7-ScDHODH growth inhibitors, dose response, SYBR Green, dry powder samples (AID 1159570); assay type: functional, cell-based;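 further: parasite growth measured after 72 hours of compound exposure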
[26] = P. falciparum ATP4 D1247Y mutant growth inhibitors, dose response, NITD609-resistant line, SYBR Green, dry powder (AID 1159571); assay type: functional, cell-based;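 further: parasites synchronized at ring stage by sorbitol before testing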
[27] = P. falciparum Dd2 growth inhibitors, dose response, SYBR Green, dry powder samples (AID 1159566); assay type: functional, cell-based;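 further: potency for growth inhibition with lower SYBR green DNA signal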
[28] = P. falciparum Dd2 growth inhibitors, dose response, SYBR Green, cherry-picked samples (AID 1159567); assay type: functional, cell-based

T5 sequence (P49327 whole entry, the tested form may be a part): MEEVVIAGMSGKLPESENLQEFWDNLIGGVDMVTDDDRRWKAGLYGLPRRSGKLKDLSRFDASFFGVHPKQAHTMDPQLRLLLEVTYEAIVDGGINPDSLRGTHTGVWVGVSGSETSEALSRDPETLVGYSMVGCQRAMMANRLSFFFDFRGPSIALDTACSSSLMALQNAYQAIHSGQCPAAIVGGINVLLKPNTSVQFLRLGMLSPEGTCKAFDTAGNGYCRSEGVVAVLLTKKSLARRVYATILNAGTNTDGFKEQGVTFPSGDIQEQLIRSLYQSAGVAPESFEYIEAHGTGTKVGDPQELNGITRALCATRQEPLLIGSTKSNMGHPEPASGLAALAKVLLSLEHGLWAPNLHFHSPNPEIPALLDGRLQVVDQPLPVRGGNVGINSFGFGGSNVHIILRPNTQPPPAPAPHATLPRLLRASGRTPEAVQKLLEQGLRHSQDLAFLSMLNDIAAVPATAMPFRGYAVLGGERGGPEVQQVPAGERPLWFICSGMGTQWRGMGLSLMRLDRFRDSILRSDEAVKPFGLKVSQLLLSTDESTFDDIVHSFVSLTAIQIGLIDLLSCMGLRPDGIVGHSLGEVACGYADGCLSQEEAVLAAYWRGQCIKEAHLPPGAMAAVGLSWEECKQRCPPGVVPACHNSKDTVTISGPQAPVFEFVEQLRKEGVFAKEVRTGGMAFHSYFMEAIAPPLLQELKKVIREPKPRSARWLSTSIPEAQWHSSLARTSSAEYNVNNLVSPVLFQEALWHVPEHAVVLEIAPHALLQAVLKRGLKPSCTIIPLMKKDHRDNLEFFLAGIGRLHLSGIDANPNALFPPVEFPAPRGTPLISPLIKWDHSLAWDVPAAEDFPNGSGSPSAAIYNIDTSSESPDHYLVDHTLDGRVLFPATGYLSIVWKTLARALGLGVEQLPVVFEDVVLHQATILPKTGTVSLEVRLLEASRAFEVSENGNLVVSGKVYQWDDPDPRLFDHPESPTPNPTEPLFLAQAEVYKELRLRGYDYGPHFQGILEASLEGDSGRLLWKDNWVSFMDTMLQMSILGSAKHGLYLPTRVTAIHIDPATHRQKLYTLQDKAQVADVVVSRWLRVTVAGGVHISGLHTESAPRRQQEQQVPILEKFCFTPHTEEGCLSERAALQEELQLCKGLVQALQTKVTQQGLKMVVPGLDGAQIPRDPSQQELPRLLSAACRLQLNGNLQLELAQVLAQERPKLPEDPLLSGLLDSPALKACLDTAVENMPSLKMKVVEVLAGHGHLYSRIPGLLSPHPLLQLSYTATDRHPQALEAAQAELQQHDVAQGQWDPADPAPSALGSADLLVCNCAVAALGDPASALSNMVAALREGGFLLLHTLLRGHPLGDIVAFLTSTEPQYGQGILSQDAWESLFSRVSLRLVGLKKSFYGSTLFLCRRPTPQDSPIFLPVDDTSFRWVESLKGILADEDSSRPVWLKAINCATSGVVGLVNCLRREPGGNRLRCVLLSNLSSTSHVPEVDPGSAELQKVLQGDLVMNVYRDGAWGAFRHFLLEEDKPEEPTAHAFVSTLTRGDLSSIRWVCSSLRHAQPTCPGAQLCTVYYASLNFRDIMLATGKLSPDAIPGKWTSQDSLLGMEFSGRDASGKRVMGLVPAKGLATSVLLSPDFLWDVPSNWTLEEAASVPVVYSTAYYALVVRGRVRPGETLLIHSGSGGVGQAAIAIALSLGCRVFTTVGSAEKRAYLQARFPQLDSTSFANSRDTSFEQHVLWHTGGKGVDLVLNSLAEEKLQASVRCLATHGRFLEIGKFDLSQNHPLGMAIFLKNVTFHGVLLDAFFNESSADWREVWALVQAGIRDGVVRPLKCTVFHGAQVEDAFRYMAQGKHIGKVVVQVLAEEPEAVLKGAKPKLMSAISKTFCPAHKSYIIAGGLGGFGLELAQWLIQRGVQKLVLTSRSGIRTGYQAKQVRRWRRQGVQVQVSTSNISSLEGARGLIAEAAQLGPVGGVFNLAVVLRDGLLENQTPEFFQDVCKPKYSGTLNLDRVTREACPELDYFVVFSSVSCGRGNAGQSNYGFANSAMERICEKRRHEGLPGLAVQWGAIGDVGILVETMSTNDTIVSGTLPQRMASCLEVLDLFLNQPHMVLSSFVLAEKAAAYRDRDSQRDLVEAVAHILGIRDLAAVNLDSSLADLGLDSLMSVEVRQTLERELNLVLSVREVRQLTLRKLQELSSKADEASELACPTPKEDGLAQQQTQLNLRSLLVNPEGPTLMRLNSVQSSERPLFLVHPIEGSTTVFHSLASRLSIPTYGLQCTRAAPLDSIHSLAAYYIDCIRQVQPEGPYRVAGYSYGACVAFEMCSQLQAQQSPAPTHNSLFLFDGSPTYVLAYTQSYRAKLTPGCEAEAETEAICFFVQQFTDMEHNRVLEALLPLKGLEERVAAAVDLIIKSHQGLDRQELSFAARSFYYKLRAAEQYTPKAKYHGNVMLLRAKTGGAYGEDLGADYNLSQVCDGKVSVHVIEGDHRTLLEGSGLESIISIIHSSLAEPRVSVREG
Chain of Cytochrome P450 3A4 (P08684 whole entry): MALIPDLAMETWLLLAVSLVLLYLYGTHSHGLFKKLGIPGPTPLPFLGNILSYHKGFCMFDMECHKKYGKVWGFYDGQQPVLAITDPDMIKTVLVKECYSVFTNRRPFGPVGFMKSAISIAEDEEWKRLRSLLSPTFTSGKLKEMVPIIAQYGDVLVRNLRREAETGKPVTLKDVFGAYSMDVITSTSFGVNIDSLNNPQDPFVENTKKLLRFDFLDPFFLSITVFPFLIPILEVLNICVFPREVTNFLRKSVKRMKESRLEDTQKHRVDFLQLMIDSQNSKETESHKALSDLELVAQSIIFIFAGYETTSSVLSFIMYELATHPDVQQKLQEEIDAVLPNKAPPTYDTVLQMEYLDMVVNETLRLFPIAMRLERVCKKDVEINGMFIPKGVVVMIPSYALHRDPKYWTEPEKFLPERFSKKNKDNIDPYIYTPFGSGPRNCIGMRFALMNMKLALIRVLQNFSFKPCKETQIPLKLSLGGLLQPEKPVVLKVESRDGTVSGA
Chain of Cytochrome P450 2D6 (P10635 whole entry): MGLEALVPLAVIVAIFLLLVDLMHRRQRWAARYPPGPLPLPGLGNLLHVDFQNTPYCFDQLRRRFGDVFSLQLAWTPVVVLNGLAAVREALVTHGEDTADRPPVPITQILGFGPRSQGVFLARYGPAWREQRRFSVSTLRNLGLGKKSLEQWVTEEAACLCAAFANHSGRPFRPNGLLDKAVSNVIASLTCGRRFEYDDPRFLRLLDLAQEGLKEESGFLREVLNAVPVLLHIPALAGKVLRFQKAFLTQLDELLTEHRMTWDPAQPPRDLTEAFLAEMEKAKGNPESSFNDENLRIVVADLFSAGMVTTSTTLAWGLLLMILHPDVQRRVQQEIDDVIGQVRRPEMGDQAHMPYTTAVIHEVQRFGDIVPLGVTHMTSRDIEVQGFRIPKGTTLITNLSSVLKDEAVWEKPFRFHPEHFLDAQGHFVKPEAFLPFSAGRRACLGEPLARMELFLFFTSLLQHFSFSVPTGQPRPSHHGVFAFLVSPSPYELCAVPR
Chain of Cytochrome P450 2C9 (P11712 whole entry): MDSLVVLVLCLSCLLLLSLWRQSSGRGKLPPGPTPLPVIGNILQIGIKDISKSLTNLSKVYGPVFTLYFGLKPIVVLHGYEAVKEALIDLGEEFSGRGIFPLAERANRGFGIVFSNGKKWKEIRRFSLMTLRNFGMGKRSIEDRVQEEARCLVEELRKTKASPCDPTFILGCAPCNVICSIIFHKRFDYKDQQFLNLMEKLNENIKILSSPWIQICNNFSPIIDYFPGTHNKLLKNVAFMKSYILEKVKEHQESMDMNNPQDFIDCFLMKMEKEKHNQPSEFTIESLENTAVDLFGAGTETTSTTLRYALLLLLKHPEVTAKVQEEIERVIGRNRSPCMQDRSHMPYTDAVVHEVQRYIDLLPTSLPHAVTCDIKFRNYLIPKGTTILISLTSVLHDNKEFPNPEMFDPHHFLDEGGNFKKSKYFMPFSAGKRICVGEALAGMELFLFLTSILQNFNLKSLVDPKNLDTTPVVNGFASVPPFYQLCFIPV
Chain of Nonstructural protein 1 (Q194T2 whole entry): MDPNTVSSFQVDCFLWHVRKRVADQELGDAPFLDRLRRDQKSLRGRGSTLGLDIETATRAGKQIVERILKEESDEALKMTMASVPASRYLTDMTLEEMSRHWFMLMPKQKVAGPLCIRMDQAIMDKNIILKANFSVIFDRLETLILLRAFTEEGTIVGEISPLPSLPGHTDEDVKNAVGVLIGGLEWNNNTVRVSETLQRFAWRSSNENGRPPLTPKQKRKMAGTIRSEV

Nc1nnc(SCCCC(=O)c2ccccc2)s1
IC50 (Prothrombin): > 50 µM (not active)

CCCCCCC1(C)N=C(S)N(c2ccccc2)N1 (stereo unspecified)
IC50 [1]: > 67.6 µM (inactive) | EC50 [2]: > 67.6 µM (inactive)

COC(=O)C1=C(N)Oc2cc(C)n(Cc3cccnc3)c(=O)c2C1c1cccc(OC)c1OC (stereo unspecified)
CC50 [3]: > 40 µM (active)

O=c1cc(CN2CCN(Cc3ccccc3)CC2)c2ccc(O)cc2o1
EC50 [4]: < 0.1 µM (active) | EC50 [5]: > 60 µM (not active) | EC50 (cells [6]): 0.038 µM (active)

Oc1ccc2ccccc2c1/C=N\C1CCCCC1
IC50 [7]: 23.3 µM (active)

CCOc1nc(NCCN2CCOCC2)nc(Nc2ccc(C)cc2)n1
EC50 (cells [8]): > 350 µM (not active) | EC50 (cells [9]): > 350 µM (not active) | IC50 (Prothrombin): > 50 µM (not active) | AC50 (Cytochrome P450 2D6): 11.2 µM (inconclusive) | AC50 (Cytochrome P450 2C9): 11.2 µM (inconclusive) | AC50 (Cytochrome P450 3A4): 15.8 µM (inconclusive)

C(=N\Nc1nc2ccccc2s1)/c1ccc2c(c1)OCO2
IC50 [1]: > 67.5 µM (inactive) | EC50 [2]: > 67.5 µM (inactive)

O=C(/C=C/c1cccs1)Nc1ccc(Br)cn1
EC50 (BJ [10]): 25.5 µM (inconclusive) | EC50 [11]: 0.373 µM (inconclusive) | EC50 (BJ [12]): 10.2 µM (inconclusive) | EC50 (BJ [13]): 0.417 µM (inconclusive) | CC50 [3]: > 40 µM (active)

CCc1cc2c(N3CCCCC3)ncnc2s1
CC50 [3]: > 40 µM (active)

CS(=O)(=O)c1ccc2nc(NC(=O)CCC(=O)c3cccs3)sc2c1
IC50 (Estrogen receptor): 7.11 µM (active)

O=[N+]([O-])c1c(NCCCO)cc(Sc2ccc(Cl)cc2)c2nonc12
EC50 [14]: 9.46 µM (active) | AC50 [15]: 12.7 µM (active) | AC50 [16]: 4.49 µM (active) | EC50 [17]: 4.81 µM (active) | IC50 [7]: > 50 µM (not active) | IC50 (Fatty acid synthase [18]): 11.5 µM (active) | AC50 [19]: 5.63 µM (active) | AC50 [20]: 25.4 µM (active) | EC50 [21]: 13.5 µM (active) | IC50 (Fatty acid synthase [22]): 6.69 µM (active)

CN1CCc2c(sc3c2c(=O)n(-c2ccccc2)c2nnc(SCc4ccccc4)n32)C1
EC50 [4]: < 0.1 µM (active) | EC50 [5]: > 60 µM (not active) | EC50 (cells [6]): 0.015 µM (active)

CCC(=O)Nc1cccc(C(=O)OCc2cccc([N+](=O)[O-])c2)c1
IC50 (Prothrombin): > 50 µM (not active)

CC(=O)c1ccc(S(=O)(=O)Nc2ccc(-c3cn4c(n3)SCC4)cc2)cc1
IC50 (Prothrombin): > 50 µM (not active)

CCOC(=O)C1=C(N)c2ccccc2CC1C(C)C (stereo unspecified)
EC50 [23]: > 20 µM (not active) | EC50 [24]: > 20 µM (not active)

O=C1CC(Nc2ccc(N3CCOCC3)cc2)C(=O)N1c1cccc(C(F)(F)F)c1 (stereo unspecified)
IC50 (Nonstructural protein 1): > 100 µM (active) | IC50 (Protein Tat): 29.5 µM (inconclusive)

CC(C)CN(C(=O)CN1CCN(c2ccc(O)cc2)CC1)c1c(N)n(CC(C)C)c(=O)[nH]c1=O
IC50 (Protein Tat): > 100 µM (active)

Cc1ccc2c(CN3CCN(Cc4ccccc4)CC3)cc(=O)oc2c1
EC50 [4]: < 0.1 µM (active) | EC50 [5]: > 60 µM (not active) | EC50 (cells [6]): 0.049 µM (active)

COc1ccc2c3c(n(C)c2c1)[C@@H](CO)N(C(=O)Nc1ccc(F)cc1)CC31CCN(Cc2ccccn2)CC1
AC50 [25]: 1.69 µM (active) | AC50 [26]: 2.11 µM (active) | AC50 [27]: 2.05 µM (active) | AC50 [28]: 3.18 µM (active)

COc1ccc(C#Cc2ccc3c(c2)[C@H]2[C@H](CCN2C(=O)C2CCCC2)[C@@H](CO)N3)cc1
AC50 [25]: 1.99 µM (active) | AC50 [26]: 2.2 µM (active) | AC50 [27]: 1.67 µM (active) | AC50 [28]: 2.04 µM (active)

O=C(CCCN1C(=O)c2cccnc2C1=O)N1CC(=O)N(CCc2ccccc2)C(=O)C1
EC50 [23]: > 20 µM (not active) | EC50 [24]: > 20 µM (not active)
